Data from patent publication US20250136606A1, “MODULATORS OF TRPML, THEIR COMPOSITIONS AND METHODS OF USE” (Caraway Therapeutics, Inc., priority 2021, published 2025).
pEC50: −log10 of the molar value.

Assays:
Assay type in all cases: cell-based
Conditions in all cases: fluorescent calcium assay
TRPML3 = target: T1, TRPML3 (Homo sapiens, UniProt Q8TDD5); experiment: Fluorescent TRPML3 assay (performed as for TRPML1, substituting the TRPML3 subtype)
T1 construct: expressed in transfected cells
T1 sequence (Q8TDD5 1-553): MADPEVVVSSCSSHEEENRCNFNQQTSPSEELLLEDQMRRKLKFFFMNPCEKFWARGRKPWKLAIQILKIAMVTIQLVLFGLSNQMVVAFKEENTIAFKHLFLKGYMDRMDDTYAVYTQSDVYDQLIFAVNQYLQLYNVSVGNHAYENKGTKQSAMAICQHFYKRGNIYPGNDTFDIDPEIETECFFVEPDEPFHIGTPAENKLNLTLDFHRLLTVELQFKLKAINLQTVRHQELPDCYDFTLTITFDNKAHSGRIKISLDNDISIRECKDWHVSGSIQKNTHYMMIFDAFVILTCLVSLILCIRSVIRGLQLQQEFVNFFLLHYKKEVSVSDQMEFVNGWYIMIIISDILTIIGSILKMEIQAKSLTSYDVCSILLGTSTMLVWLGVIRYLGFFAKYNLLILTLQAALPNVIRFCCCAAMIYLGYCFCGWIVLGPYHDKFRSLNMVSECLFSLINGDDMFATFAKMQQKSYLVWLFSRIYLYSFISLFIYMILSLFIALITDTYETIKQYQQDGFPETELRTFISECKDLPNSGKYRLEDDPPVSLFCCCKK
How it was run: (§1)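 Calcium-influx readout: Fluo4 fluorescence at 480/540 nm, normalised to positive and negative controls per plate, EC50 fitted by non-linear regression. Cells were HEK-293 Trex stable lines, channel expression induced overnight with 0.5 ug/mL doxycycline; tested at 20 micromolar down to 6 nanomolar final, half-log steps, triplicate.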

TRPML2 = target: T2, TRPML2 (Homo sapiens, UniProt Q8IZK6); experiment: Fluorescent TRPML2 assay (performed as for TRPML1, substituting the TRPML2 subtype)
T2 construct: expressed in transfected cells
T2 sequence (Q8IZK6 1-566): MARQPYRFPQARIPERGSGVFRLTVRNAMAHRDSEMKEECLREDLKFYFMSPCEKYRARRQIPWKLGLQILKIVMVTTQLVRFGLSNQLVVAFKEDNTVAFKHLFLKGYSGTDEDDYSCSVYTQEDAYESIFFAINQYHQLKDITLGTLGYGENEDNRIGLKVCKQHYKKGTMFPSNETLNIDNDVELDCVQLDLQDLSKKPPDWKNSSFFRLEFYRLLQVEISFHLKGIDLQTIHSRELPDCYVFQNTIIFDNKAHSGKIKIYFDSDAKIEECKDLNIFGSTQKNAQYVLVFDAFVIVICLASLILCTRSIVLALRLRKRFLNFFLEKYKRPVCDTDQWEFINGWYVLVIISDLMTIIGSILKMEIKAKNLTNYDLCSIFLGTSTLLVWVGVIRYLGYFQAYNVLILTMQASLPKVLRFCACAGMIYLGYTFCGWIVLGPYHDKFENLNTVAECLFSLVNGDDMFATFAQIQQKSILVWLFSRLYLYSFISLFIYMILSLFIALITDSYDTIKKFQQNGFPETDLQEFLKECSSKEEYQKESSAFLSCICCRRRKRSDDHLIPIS
How it was run: as §1

TRPML1 = TRPML1 (Homo sapiens, UniProt Q9GZU1); experiment: Fluorescent TRPML1 assay (Fluo4-AM calcium fluorescence in doxycycline-induced HEK-293 Trex cells)
Sequence of TRPML1 (Q9GZU1 whole entry L15A/L16A/L577A/L578A, form open): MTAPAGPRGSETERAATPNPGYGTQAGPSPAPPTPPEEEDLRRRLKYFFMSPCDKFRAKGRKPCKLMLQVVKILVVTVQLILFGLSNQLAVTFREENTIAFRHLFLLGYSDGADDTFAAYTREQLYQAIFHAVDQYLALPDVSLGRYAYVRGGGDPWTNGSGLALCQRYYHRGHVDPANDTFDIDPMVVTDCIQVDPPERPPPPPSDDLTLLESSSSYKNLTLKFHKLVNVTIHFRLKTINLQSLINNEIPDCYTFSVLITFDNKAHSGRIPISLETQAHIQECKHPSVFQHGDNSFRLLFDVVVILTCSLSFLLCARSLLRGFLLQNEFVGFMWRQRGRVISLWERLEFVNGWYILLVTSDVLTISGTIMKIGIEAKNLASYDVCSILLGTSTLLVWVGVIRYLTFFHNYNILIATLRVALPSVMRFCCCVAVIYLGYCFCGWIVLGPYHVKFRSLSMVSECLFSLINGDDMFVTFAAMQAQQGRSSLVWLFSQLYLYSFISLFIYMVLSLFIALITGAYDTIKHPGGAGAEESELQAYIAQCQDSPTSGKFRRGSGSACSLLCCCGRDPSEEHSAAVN
How it was run: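 First, expression of surface-targeted mutant human TRPML1 is induced in HEK-293 Trex cells with 0.5 ug/mL doxycycline the day before. Next, cells take up 1 micromolar Fluo4-AM in Ringer's with 0.1% Pluronic. Finally, they are added to compounds (6 nanomolar–20 micromolar final) in 10 mM calcium Ringer's and fluorescence is read.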

pEC50 (TRPML3) | pEC50 (TRPML2) | pEC50 (TRPML1) | Compound
< 5.70 | < 5.70 | 5.70 to 6.30 | CC(C)(C)OC(=O)N1CCN(c2nccc3c2c(-c2ccccc2F)cn3-c2cncnc2)CC1 [Compound 171, tert-butyl 4-(3-(2-fluorophenyl)-1-(pyrimidin-5-yl)-1H-pyrrolo[3,2-c]pyridin-4-yl)piperazine-1-carboxylate]
5.70 to 6.30 | < 5.70 | 5.70 to 6.30 | CC(C)(CF)OC(=O)N1CCN(c2ncnc3c2c(-c2ccccc2F)cn3-c2cccnc2)CC1 [Compound 172, 1-fluoro-2-methylpropan-2-yl 4-(5-(2-fluorophenyl)-7-(pyridin-3-yl)-7H-pyrrolo[2,3-d]pyrimidin-4-yl)piperazine-1-carboxylate]
5.70 to 6.30 | < 5.70 | 5.70 to 6.30 | CC(C)(CF)OC(=O)N1CCN(c2ncnc3c2c(-c2ccccc2F)cn3-c2cncnc2)CC1 [Compound 173, 1-fluoro-2-methylpropan-2-yl 4-(5-(2-fluorophenyl)-7-(pyrimidin-5-yl)-7H-pyrrolo[2,3-d]pyrimidin-4-yl)piperazine-1-carboxylate]
6.30 to 7.00 | 5.70 to 6.30 | 6.30 to 7.00 | C[C@@H]1CN(c2ncnc3c2c(-c2ccccc2F)cn3-c2cnn(C)c2)[C@@H](C)CN1C(=O)OC(C)(C)C [Compound 176, tert-butyl (2R,5S)-4-(5-(2-fluorophenyl)-7-(1-methyl-1H-pyrazol-4-yl)-7H-pyrrolo[2,3-d]pyrimidin-4-yl)-2,5-dimethylpiperazine-1-carboxylate]
5.70 to 6.30 | < 5.70 | 5.70 to 6.30 | Cc1cncc(-n2cc(-c3cccnc3)c3c(N4CCN(C(=O)OC(C)(C)C)C[C@@H]4C)ncnc32)c1 [Compound 177, tert-butyl (S)-3-methyl-4-(7-(5-methylpyridin-3-yl)-5-(pyridin-3-yl)-7H-pyrrolo[2,3-d]pyrimidin-4-yl)piperazine-1-carboxylate]
5.70 to 6.30 | < 5.70 | 6.30 to 7.00 | Cc1cncc(-n2cc(-c3cccnc3)c3c(N4C[C@@H](C)N(C(=O)OC(C)(C)C)C[C@@H]4C)ncnc32)c1 [Compound 178, tert-butyl (2R,5S)-2,5-dimethyl-4-(7-(5-methylpyridin-3-yl)-5-(pyridin-3-yl)-7H-pyrrolo[2,3-d]pyrimidin-4-yl)piperazine-1-carboxylate]
6.30 to 7.00 | < 5.70 | 5.70 to 6.30 | C[C@@H]1CN(c2ncnc3c2c(-c2cccnc2)cn3-c2cncc(C(F)(F)F)c2)[C@@H](C)CN1C(=O)OC(C)(C)C [Compound 179, tert-butyl (2R,5S)-2,5-dimethyl-4-(5-(pyridin-3-yl)-7-(5-(trifluoromethyl)pyridin-3-yl)-7H-pyrrolo[2,3-d]pyrimidin-4-yl)piperazine-1-carboxylate]
> 7.00 | 5.70 to 6.30 | 6.30 to 7.00 | Cc1nccnc1-c1cn(-c2ccc(F)c(F)c2)c2ncnc(N3C[C@@H](C)N(C(=O)OC(C)(C)C)C[C@@H]3C)c12 [Compound 180, tert-butyl (2R,5S)-4-(7-(3,4-difluorophenyl)-5-(3-methylpyrazin-2-yl)-7H-pyrrolo[2,3-d]pyrimidin-4-yl)-2,5-dimethylpiperazine-1-carboxylate]
6.30 to 7.00 | 5.70 to 6.30 | 6.30 to 7.00 | Cc1nccnc1-c1cn(-c2ccc(F)cc2)c2ncnc(N3C[C@@H](C)N(C(=O)OC(C)(C)C)C[C@@H]3C)c12 [Compound 181, tert-butyl (2R,5S)-4-(7-(4-fluorophenyl)-5-(3-methylpyrazin-2-yl)-7H-pyrrolo[2,3-d]pyrimidin-4-yl)-2,5-dimethylpiperazine-1-carboxylate]
5.70 to 6.30 | < 5.70 | 5.70 to 6.30 | Cc1nccnc1-c1cn(-c2ccccc2)c2ncnc(N3C[C@@H](C)N(C(=O)OC(C)(C)C)C[C@@H]3C)c12 [Compound 182, tert-butyl (2R,5S)-2,5-dimethyl-4-(5-(3-methylpyrazin-2-yl)-7-phenyl-7H-pyrrolo[2,3-d]pyrimidin-4-yl)piperazine-1-carboxylate]
6.30 to 7.00 | 5.70 to 6.30 | 6.30 to 7.00 | C[C@H]1CN(C(=O)OC(C)(C)C(F)(F)F)CCN1c1ncnc2c1c(-c1ccccc1)cn2-c1cnn(C)c1 [Compound 183, 1,1,1-trifluoro-2-methylpropan-2-yl(S)-3-methyl-4-(7-(1-methyl-1H-pyrazol-4-yl)-5-phenyl-7H-pyrrolo[2,3-d]pyrimidin-4-yl)piperazine-1-carboxylate]
6.30 to 7.00 | 5.70 to 6.30 | 6.30 to 7.00 | Cc1nccnc1-c1cn(-c2ccc(Cl)cc2)c2ncnc(N3C[C@@H](C)N(C(=O)OC(C)(C)C)C[C@@H]3C)c12 [Compound 184, tert-butyl (2R,5S)-4-(7-(4-chlorophenyl)-5-(3-methylpyrazin-2-yl)-7H-pyrrolo[2,3-d]pyrimidin-4-yl)-2,5-dimethylpiperazine-1-carboxylate]
> 7.00 | 5.70 to 6.30 | > 7.00 | C[C@@H]1CN(c2ncnc3c2c(-c2ccccc2F)cn3-c2cnn(C)c2)[C@@H](C)CN1C(=O)OC(C)(C)CF [Compound 185, 1-fluoro-2-methylpropan-2-yl (2R,5S)-4-(5-(2-fluorophenyl)-7-(1-methyl-1H-pyrazol-4-yl)-7H-pyrrolo[2,3-d]pyrimidin-4-yl)-2,5-dimethylpiperazine-1-carboxylate]
> 7.00 | 6.30 to 7.00 | > 7.00 | C[C@@H]1CN(c2ncnc3c2c(-c2ccccc2F)cn3-c2cnn(C)c2)[C@@H](C)CN1C(=O)OC(C)(C)C(F)(F)F [Compound 186, 1,1,1-trifluoro-2-methylpropan-2-yl (2R,5S)-4-(5-(2-fluorophenyl)-7-(1-methyl-1H-pyrazol-4-yl)-7H-pyrrolo[2,3-d]pyrimidin-4-yl)-2,5-dimethylpiperazine-1-carboxylate]
6.30 to 7.00 | 6.30 to 7.00 | 6.30 to 7.00 | CC1CN(C(=O)OC(C)(C)C)CCN1c1nccc2c1c(-c1ccccn1)cn2-c1cccc(Cl)c1 (stereo not drawn) [Compound 187, tert-butyl 4-(1-(3-chlorophenyl)-3-(pyridin-2-yl)-1H-pyrrolo[3,2-c]pyridin-4-yl)-3-methylpiperazine-1-carboxylate]
6.30 to 7.00 | 5.70 to 6.30 | 6.30 to 7.00 | C[C@H]1CN(c2ncnc3c2c(C2CC2)cn3-c2cc(F)cc(F)c2)CCN1C(=O)OC(C)(C)C [Compound 188, tert-Butyl (S)-4-(5-cyclopropyl-7-(3,5-difluorophenyl)-7H-pyrrolo[2,3-d]pyrimidin-4-yl)-2-methylpiperazine-1-carboxylate]
6.30 to 7.00 | 5.70 to 6.30 | 5.70 to 6.30 | CC1CN(C(=O)OC(C)(C)C)CCN1c1nccc2c1c(-c1cnccn1)cn2-c1cccc(Cl)c1 (stereo not drawn) [Compound 190, tert-Butyl 4-(1-(3-chlorophenyl)-3-(pyrazin-2-yl)-1H-pyrrolo[3,2-c]pyridin-4-yl)-3-methylpiperazine-1-carboxylate]
6.30 to 7.00 | 5.70 to 6.30 | 6.30 to 7.00 | C[C@H]1CN(C(=O)OC(C)(C)CF)CCN1c1ncnc2c1c(-c1ccccc1)cn2-c1cnn(C)c1 [Compound 191, 1-fluoro-2-methylpropan-2-yl (S)-3-methyl-4-(7-(1-methyl-1H-pyrazol-4-yl)-5-phenyl-7H-pyrrolo[2,3-d]pyrimidin-4-yl)piperazine-1-carboxylate]
> 7.00 | 6.30 to 7.00 | > 7.00 | C[C@@H]1CN(c2ncnc3c2c(-c2ccccc2F)cn3-c2ccccn2)CCN1C(=O)OC(C)(C)C [Compound 192, tert-butyl (R)-4-(5-(2-fluorophenyl)-7-(pyridin-2-yl)-7H-pyrrolo[2,3-d]pyrimidin-4-yl)-2-methylpiperazine-1-carboxylate]
